Experimental data: patent US11753446B2, “Beta-hairpin peptidomimetics” (POLYPHOR AG, priority 2014, dated 2023)
Where a SMILES comes first, the peptide text is derived from it. Bridges are numbered along the chain shown (N, C = ends). [ ]: non-standard residue; d: D form. Tle = CC(C)(C)[C@H](N)C(=O)O; dDab = NCC[C@@H](N)C(=O)O; NMeA = CN[C@@H](C)C(=O)O; Dab = NCC[C@H](N)C(=O)O; Dap = NC[C@H](N)C(=O)O

Legend:
[1] = test system: Acinetobacter baumannii DSM 30008; assay type: cell-based; settings: DSM 30008
How it was run: (§1)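 Peptide activity was tested by NCCLS broth microdilution with slight modifications. Bacteria were diluted in cation-adjusted Mueller-Hinton II broth to approximately 10^6 CFU/mL against a 0.5 McFarland standard. They were then exposed to two-fold serial peptide dilutions in broth containing 0.002% final polysorbate 80.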

[2] = test system: Escherichia coli ATCC 25922; assay type: cell-based; settings: ATCC 25922
How it was run: as §1

[3] = test system: Klebsiella pneumoniae ATCC 13883; assay type: cell-based; settings: ATCC 13883
How it was run: as §1

[4] = test system: human red blood cells (hRBC); experiment: Hemolysis: hemolytic activity at 100 μg/mL, 1 h at 37° C.; settings: red cells of human, 1 h, 100
How it was run: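 Peptides at 100 μg/mL incubated with washed 20% (v/v) human erythrocytes (~0.9×10^9 cells/mL) for 1 h at 37 °C with shaking. Released hemoglobin read at OD 540 nm in supernatant; 0% and 100% lysis from PBS/0.001% acetic acid and 2.5% Triton X-100.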

SMILES	Acinetobacter baumannii DSM 30008 MIC [1] [µg/mL]	Escherichia coli ATCC 25922 MIC [2] [µg/mL]	Klebsiella pneumoniae ATCC 13883 MIC [3] [µg/mL]	Hemolysis at 100 μg/mL [4] [%]
CC(C)C[C@@H]1NC(=O)[C@H](CCCNC(=N)N)NC(=O)[C@@H](C)NC(=O)[C@H](C(C)C)NC(=O)[C@@H]2CSSC[C@H](NC1=O)C(=O)N[C@@H](Cc1ccc(O)cc1)C(=O)N[C@@H](CC(N)=O)C(=O)N[C@@H](CCCN)C(=O)N[C@H](CCN)C(=O)N[C@@H](CCN)C(=O)N[C@@H](Cc1c[nH]c3ccccc13)C(=O)N[C@@H](CCN)C(=O)N[C@@H](Cc1ccc(O)cc1)C(=O)N2 [Example 79, cyclo(-Leu-Cys-Tyr-Asn-Orn-^DDab-Dab-Trp-Dab-Tyr-Cys-Val-^DAla-Arg-)] (HELM PEPTIDE1{C.V.[dA].R.L.C.Y.N.[Orn].[NCC[C@@H](N[*:1])C(=O)[*:2]].[Dab].W.[Dab].Y}$PEPTIDE1,PEPTIDE1,1:R3-6:R3|PEPTIDE1,PEPTIDE1,1:R1-14:R2$$$V2.0)	1.5	1	1	1
CC(C)C[C@@H]1NC(=O)[C@H](CCCNC(=N)N)NC(=O)[C@@H](CCN)NC(=O)[C@H](Cc2ccc(O)cc2)NC(=O)[C@@H]2CSSC[C@H](NC1=O)C(=O)N[C@@H](Cc1ccc(O)cc1)C(=O)N[C@@H](C)C(=O)N[C@@H](CCCN)C(=O)N[C@H](CCN)C(=O)N[C@@H](CCN)C(=O)N[C@@H](Cc1c[nH]c3ccccc13)C(=O)N[C@@H](C)C(=O)N[C@@H](Cc1ccc(O)cc1)C(=O)N2 [Example 17, cyclo(-Leu-Cys-Tyr-Ala-Orn-^DDab-Dab-Trp-Ala-Tyr-Cys-Tyr-^DDab-Arg-)] (HELM PEPTIDE1{A.[Orn].[NCC[C@@H](N[*:1])C(=O)[*:2]].[Dab].W.A.Y.C.Y.[NCC[C@@H](N[*:1])C(=O)[*:2]].R.L.C.Y}$PEPTIDE1,PEPTIDE1,8:R3-13:R3|PEPTIDE1,PEPTIDE1,1:R1-14:R2$$$V2.0)	0.5	0.5	1	4
CC(C)C[C@@H]1NC(=O)[C@H](CCCNC(=N)N)NC(=O)[C@@H](CCN)NC(=O)[C@H](C(C)C)NC(=O)[C@@H]2CSSC[C@H](NC1=O)C(=O)N[C@@H](C(C)C)C(=O)N[C@@H](C(C)C)C(=O)N[C@@H](CCCN)C(=O)N[C@H](CCN)C(=O)N[C@@H](CCN)C(=O)N[C@@H](Cc1c[nH]c3ccccc13)C(=O)N[C@@H](Cc1ccc(O)cc1)C(=O)N[C@@H](Cc1ccc(O)cc1)C(=O)N2 [Example 20, cyclo(-Leu-Cys-Val-Val-Orn-^DDab-Dab-Trp-Tyr-Tyr-Cys-Val-^DDab-Arg-)] (HELM PEPTIDE1{C.V.V.[Orn].[NCC[C@@H](N[*:1])C(=O)[*:2]].[Dab].W.Y.Y.C.V.[NCC[C@@H](N[*:1])C(=O)[*:2]].R.L}$PEPTIDE1,PEPTIDE1,1:R3-10:R3|PEPTIDE1,PEPTIDE1,1:R1-14:R2$$$V2.0)	0.25	1	1	7
CC(C)[C@@H]1NC(=O)[C@@H]2CCCN2C(=O)[C@H](C)N(C)C(=O)[C@H](CO)NC(=O)[C@@H]2CSSC[C@H](NC1=O)C(=O)N[C@@H](Cc1ccc(O)cc1)C(=O)N[C@@H](CCN)C(=O)N[C@@H](CN)C(=O)N[C@H](CCN)C(=O)N[C@@H](CCN)C(=O)N[C@@H](Cc1c[nH]c3ccccc13)C(=O)N[C@@H](CCN)C(=O)N[C@@H](C(C)(C)C)C(=O)N2 [Example 9, cyclo(-Val-Cys-Tyr-Dab-Dap-^DDab-Dab-Trp-Dab-tBuGly-Cys-Ser-NMeAla-Pro-] (cyclo(CS[NMeA]PVCY[Dab][Dap][dDab][Dab]W[Dab][Tle]); disulfide 1-6)	1	0.5	0.5	2
CC(C)C[C@@H]1NC(=O)[C@H](CCCNC(=N)N)NC(=O)[C@H]2CCCN2C(=O)[C@H](C(C)C)NC(=O)[C@H]([C@@H](C)O)NC(=O)[C@H](C(C)C)NC(=O)[C@@H]2CSSC[C@H](NC(=O)[C@H](Cc3ccc(O)cc3)NC(=O)[C@H]([C@@H](C)O)NC1=O)C(=O)N[C@@H](CCN)C(=O)N[C@@H](CCN)C(=O)N[C@@H](CCN)C(=O)N[C@@H](Cc1c[nH]c3ccccc13)C(=O)N2 [Example 35, cyclo(-Leu-Thr-Tyr-Cys-Dab-Dab-Dab-Trp-Cys-Val-Thr-Val-^DPro-Arg-)] (HELM PEPTIDE1{C.[Dab].[Dab].[Dab].W.C.V.T.V.[dP].R.L.T.Y}$PEPTIDE1,PEPTIDE1,1:R3-6:R3|PEPTIDE1,PEPTIDE1,1:R1-14:R2$$$V2.0)	1	2	2	4
